Here are results for one compound from patent publication US12133846B2, “Electrophilic androgen receptor (AR) antagonists for AR downregulation and ferroptosis induction in cancer cells” (priority 2019, dated 2024).

Data set [1] in a line: Polarity/water solubility by retention on C18 reversed-phase HPLC. To be noted: shorter retention time on C18 reversed-phase HPLC column. The format is physicochemical. The protocol: NAC conjugate 2-63 gradually releases free ITC 12b under physiological condition. The NAC conjugate of ITC could reversibly form free ITCs in aqueous solution (Zhang, Y., Carcinogenesis 2012, 33, 2-9). To test this possibility on the setting of ITC-ARi, 2-63 (50 μM) was dissolved in PBS at physiological pH (7.4), and its decomposition was monitored at 37° C. using HPLC. […] 2-63, therefore, can be viewed as a more water-soluble prodrug of 12b when it is used in cell culture or administrated in vivo. This NAC conjugation approach avoids acute/instant electrophilic insult and can constrain the concentration of electrophilic ITC within certain levels. Since non-cancerous cells usually have a larger GSH/antioxidant pool to neutralize electrophilic/oxidative attack (Trachootham, et al., Cancer Cell 2006, 10, 241-252), different tolerability to 2-63 could be seen between cancerous and noncancerous cells.

The test system of data set [2] is VCaP cells. As to the kind of experiment: MTT viability assay, VCaP cells. The class given is cell-based. To be noted: Homo sapiens, VCaP, 72 h, read-out: IC50, viability of VCaP cells. An excerpt:
Biological Characterization. ITC-ARi hybrid drugs effectively reduce the viability of PCa cells. By using an MTT assay, it was first examined if the newly synthesized hybrid drugs affect the viability of CRPC-relevant PCa cells. PCa VCaP cells naturally express abundant wild type FL AR as well as AR splice variants (e.g., AR-V7). These cells were, therefore, used as one of the cell culture models in this work to investigate the drug-caused viability loss and AR downregulation.
For orientation: Tetrazolium dyes change colour on reduction, which living cells bring about.

The subject of another data set is LNCaP and RWPE-1 cells. As to the kind of experiment: MTT viability, PCa LNCaP versus non-cancerous RWPE-1 cells. The format is cell-based. To be noted: 72 h, 2.5 to 10 μM. From the text: Because of the better selectivity and water solubility of 2-63 over 12b, 2-63 was used for further in vitro characterization and mechanistic studies.
Data set [3] deals with AR transcriptional activity in MDA-kb2 cells. Kind of data set: cells. The class given is cell-based. To be noted: DHT 1 nM. As to the method: MDA-kb2-cell-based ARE luciferase assays were performed to assess the influence of 2-63 and related compounds on AR transcriptional activity. […] Upon androgen stimulation and addition of a luciferase substrate, […], and the intensity is proportional to the extent of AR activation. An agent that either antagonistically competes with DHT for AR binding or reduces the expression of AR diminishes luciferase activity/fluorescence signal in this experimental system. […] 10b (an alcohol) and 11 b (an azide) are synthetic precursors of the ITC hybrid 12b.
Luciferase Assay. […] For all procedures, cells were incubated at CO2 free condition. Steady-Glo® (Promega Corp., Madison, WI) reagent was added to culture media with shaking for 10 min. Samples (100 μL) were transferred to an opaque 96-well white plate, and luminescence was measured using a luminometer.

Data set [4] has as its target T1, FL AR and AR-V7 (Homo sapiens, UniProt P10275).
T1 construct: Whole cell lysates were subjected to Western blotting and probed with the indicated antibodies; endogenous in cells; host or cells: VCaP
T1 sequence (P10275 1-644 isoform P10275-3): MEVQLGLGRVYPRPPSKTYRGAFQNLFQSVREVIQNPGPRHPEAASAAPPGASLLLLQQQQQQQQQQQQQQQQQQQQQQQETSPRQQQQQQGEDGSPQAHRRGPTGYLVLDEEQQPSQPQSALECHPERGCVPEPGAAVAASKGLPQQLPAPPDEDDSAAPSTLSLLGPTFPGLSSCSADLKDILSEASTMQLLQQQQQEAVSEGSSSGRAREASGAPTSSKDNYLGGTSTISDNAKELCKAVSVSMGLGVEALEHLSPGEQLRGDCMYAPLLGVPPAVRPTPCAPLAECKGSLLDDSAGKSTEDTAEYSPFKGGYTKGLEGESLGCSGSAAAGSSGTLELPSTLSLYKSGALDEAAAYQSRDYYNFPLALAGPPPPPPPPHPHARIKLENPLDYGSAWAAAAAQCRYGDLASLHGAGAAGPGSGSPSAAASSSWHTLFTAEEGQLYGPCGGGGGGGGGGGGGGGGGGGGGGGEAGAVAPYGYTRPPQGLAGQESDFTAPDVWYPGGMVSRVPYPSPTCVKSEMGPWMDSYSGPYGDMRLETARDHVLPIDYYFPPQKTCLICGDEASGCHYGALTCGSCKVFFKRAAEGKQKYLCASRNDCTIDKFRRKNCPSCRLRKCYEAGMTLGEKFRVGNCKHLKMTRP
As to the kind of experiment: Western blotting of FL AR and AR-V7 in VCaP cells. The class given is cell-based. The settings on record: full media, 16 h, 2-63, 12b 5 and 15 μM, Enz 10 μM. The protocol:
(§1) Western Blotting. […] Proteins in cell lysates (40 μg) were separated using electrophoresis on SDS-PAGE and transferred onto PVDF (polyvinylidenedifluoride) membranes. Membranes were blocked in 5% fat-free milk followed by incubation with primary antibodies overnight at 4° C., and the secondary horseradish peroxidase-conjugated anti-rabbit or anti-mouse antibodies. The blots were developed in the Enhanced Chemiluminescence mixture and detected by ImageQuant™ LAS 4000 imaging system (GE). Density of protein bonds were calculated and analyzed by using imageJ software downloaded from the National Institute of Health website.

Data set [5] relates to FL AR and AR-V7. Kind of data set: Western blotting of FL AR and AR-V7 in VCaP cells. The class given is cell-based. To be noted: 10 μM, 12 h time course. As to the method: as §1
For orientation: A western blot detects proteins with antibodies after separation by electrophoresis.

For the next data set, the system named is Hsp90, Hsp70, HO-1. Kind of data set: Western blotting of Hsp90, Hsp70 and HO-1 in VCaP cells. The class given is cell-based. As to the method: as §1
Another data set has as its system AR-V7, Hsp70, HO-1. Kind of data set: Western blotting under BSO combination, 22Rv1 cells. The format is cell-based. To be noted: 2-63 2.5 μM plus BSO 100 μM, 24 h. As to the method: It was first investigated if iron chelators or antioxidants could rescue the viability of drug combination-treated cells. […] HO-1 catalyzes the decomposition of heme into carbon monoxide, biliverdin, and Fe^2+. […] Both Fer-1 and the lipophilic antioxidant α-Toc can effectively scavenge radicals in phosphatidylcholine lipid bilayers and break the redox cycle that generates lipid hydroperoxide.
as §1

For data set [6], the system named is VCaP cells. As to the kind of experiment: BSO pretreatment plus drug, MTT viability, VCaP cells.
Description: Cell viability was then assessed using an MTT assay.
PCa cells (6×10^3 cells/well) were seeded into 96-well plates overnight and then treated with indicated compounds at indicated concentrations and time durations. The MTT (3-(4, 5-Dimethylthiazol-2-yl)-2,5-diphenyltetrazolium bromide) assay was performed according to the standard protocol. Briefly, MTT (0.5 mg/mL) was incubated with cells at 37° C. for 3 hours. Supernatant was removed, followed by the addition of dimethyl DMSO (100 μl). After incubation for 30 minutes at 37° C., absorbance was read at 570 nm on a microplate reader.

The term IC50 denotes the concentration at which inhibition is half-maximal.

In the case of `CC(=O)N[C@H](CSC(=S)NCCCCCCc1ccc(N2C(=S)N(c3ccc(C#N)c(C(F)(F)F)c3)C(=O)C2(C)C)cn1)C(=O)O` [2-63, N-acetyl-S-((6-(5-(3-(4-cyano-3-(trifluoromethyl)phenyl)-5,5-dimethyl-4-oxo-2-thioxoimidazolidin-1-yl)pyridine-2-yl)hexyl)carbamothioyl)-D-cysteine], the “polarity/water solubility of 2-63 over 12b” value in [1] was “greatly improves”. The 50% inhibitory concentration (IC50) with VCaP cells [2] is 6.09 µM. Also, the “differential anti-proliferative effect, LNCaP vs RWPE-1 cells” value with LNCaP and RWPE-1 cells is on record as “more tolerated by RWPE-1 cells”. In addition, the “AR inhibition at 1 μM relative to Enz, 10b and 11b” value in data set [3] (1 μM) is given as “less effective”. Further, the “suppression of DHT-stimulated luciferase activity” value in data set [3] (1-5 μM) is reported as “decreased luciferase activity in a dose-dependent manner”. The “AR inhibition at higher concentrations relative to comparators” value in data set [3] (2.5 and 5 μM) is reported as “similarly with these non-ITC-containing compounds”. Moreover, on FL AR and AR-V7 [4], the AR-V7 expression entry is on record as “dose-dependently decreased”. Besides, in the data set with FL AR and AR-V7 [5], the “FL AR and AR-V7 in time course” value was “time-dependent decline”. For the same compound, the “Hsp70 and HO-1 in time course” value with Hsp90, Hsp70, HO-1 (10 μM, 12 h time course) is on record as “notably increased after 6 h”. Besides, in the data set with Hsp90, Hsp70, HO-1 (16 h, 5 and 15 μM), the HO-1 protein level entry is recorded as “dose-dependently upregulated”, the Hsp70 protein level result is “significantly induced” and the Hsp90 protein level result is recorded as “did not change”. Moreover, the “AR-V7 expression, 22Rv1 cells” value in the data set with AR-V7, Hsp70, HO-1 is listed as “effectively depletes AR-V7”. Also, in the data set with VCaP cells [6] (BSO 2.5-10 μM 16 h pretreatment, then 2-63 1-10 μM 24 h, synergism = index <0.8), the “combinatorial effect with BSO (interaction index), VCaP” value was “synergistically reduced viability”. In the data set on VCaP cells [6] (BSO plus 2-63 reduced to 2.5 μM, 24 h), the “viability suppression, VCaP cells” value is reported as 60%.
